US20250042876A1, “HERBICIDAL PYRAZOLE PYRIMIDINE COMPOUNDS” (SYNGENTA CROP PROTECTION AG, priority 2021, published 2025)

Columns and labels:
Type in all cases: in vivo
Details in all cases: 250 g/ha, evaluated after 13 days
[1] = test system: Echinochloa crus-galli (ECHCG); experiment: Post-emergence herbicidal test, glasshouse
Experimental: (§1) Seeds of a variety of test species are sown in standard soil in pots Amaranthus palmeri (AMAPA), Amaranthus retoflexus (AMARE), Setaria faberi (SETFA), Echinochloa crus-galli (ECHCG), Ipomoea hederacea (IPOHE)). After cultivation for one day (pre-emergence) or after 8 days cultivation (post-emergence) under controlled conditions in a glasshouse (at 24/16° C., day/night; 14 hours light; 65% humidity), the plants are sprayed with an aqueous spray solution derived from the formulation of the technical active ingredient in acetone/water (50:50) solution containing 0.5% Tween 20 (polyoxyethelyene sorbitan monolaurate, CAS RN 9005-64-5). Compounds are applied at 250 g/ha unless otherwise stated. The test plants are then grown in a glasshouse under controlled conditions in a glasshouse (at 24/16° C., day/night; 14 hours light; 65% humidity) and watered twice daily. After 13 days for pre and post-emergence, the test is evaluated for the percentage damage caused to the plant. The biological activities are shown in the following table on a five-point scale (5=81-100%; 4=61-80%; 3=41-60%; 2=21-40%; 1=0-20%).

[2] = test system: Amaranthus retoflexus (AMARE); experiment: Post-emergence herbicidal test, glasshouse
Experimental: as §1

Setaria faberi (SETFA) [3] = experiment: Post-emergence herbicidal test, glasshouse
Experimental: as §1

[4] = test system: Amaranthus palmeri (AMAPA); experiment: Post-emergence herbicidal test, glasshouse
Experimental: as §1

[5] = test system: Ipomoea hederacea (IPOHE); experiment: Post-emergence herbicidal test, glasshouse
Experimental: as §1

[6] = test system: Echinochloa crus-galli (ECHCG); experiment: Pre-emergence herbicidal test, glasshouse
Experimental: as §1

[7] = test system: Amaranthus retoflexus (AMARE); experiment: Pre-emergence herbicidal test, glasshouse
Experimental: as §1

Setaria faberi (SETFA) [8] = experiment: Pre-emergence herbicidal test, glasshouse
Experimental: as §1

[9] = test system: Amaranthus palmeri (AMAPA); experiment: Pre-emergence herbicidal test, glasshouse
Experimental: as §1

[10] = test system: Ipomoea hederacea (IPOHE); experiment: Pre-emergence herbicidal test, glasshouse
Experimental: as §1

Row | SMILES | ECHCG percentage damage caused to the plant (five-point scale) [1] | AMARE percentage damage caused to the plant (five-point scale) [2] | SETFA percentage damage caused to the plant (five-point scale) (Setaria faberi (SETFA) [3]) | AMAPA percentage damage caused to the plant (five-point scale) [4] | IPOHE percentage damage caused to the plant (five-point scale) [5] | ECHCG percentage damage caused to the plant (five-point scale) [6] | AMARE percentage damage caused to the plant (five-point scale) [7] | SETFA percentage damage caused to the plant (five-point scale) (Setaria faberi (SETFA) [8]) | AMAPA percentage damage caused to the plant (five-point scale) [9] | IPOHE percentage damage caused to the plant (five-point scale) [10]
1 | Fc1cnc(Cc2cc(C(F)(F)F)nn2-c2ccc(C(F)(F)F)cc2)nc1 [Compound 1.003] | 5 (5=81-100%) | 5 (5=81-100%) | 4 (4=61-80%) | 5 (5=81-100%) | 5 (5=81-100%) | 5 (5=81-100%) | 5 (5=81-100%) | 5 (5=81-100%) | 5 (5=81-100%) | 5 (5=81-100%)
2 | FC(F)c1cc(Cc2ncc(Cl)cn2)n(-c2ccc(Cl)nc2)n1 [Compound 1.035] | 3 (3=41-60%) | 4 (4=61-80%) | 3 (3=41-60%) | 4 (4=61-80%) | 4 (4=61-80%) | 4 (4=61-80%) | 5 (5=81-100%) | 5 (5=81-100%) | 5 (5=81-100%) | 4 (4=61-80%)
3 | COc1cnc(Cc2cc(C(F)(F)F)nn2-c2ccc(C(F)(F)F)cc2)nc1 [Compound 1.004] | 5 (5=81-100%) | 5 (5=81-100%) | 5 (5=81-100%) | 5 (5=81-100%) | 4 (4=61-80%) | 5 (5=81-100%) | 5 (5=81-100%) | 5 (5=81-100%) | 5 (5=81-100%) | 5 (5=81-100%)
4 | Cc1ccc(-n2nc(C(F)(F)F)cc2Cc2ncc(Cl)cn2)cc1 [Compound 1.037, 5-chloro-2-[[2-(p-tolyl)-5-(trifluoromethyl)pyrazol-3-yl]methyl]pyrimidine] | 4 (4=61-80%) | 5 (5=81-100%) | 5 (5=81-100%) | – | 3 (3=41-60%) | 5 (5=81-100%) | 5 (5=81-100%) | 5 (5=81-100%) | 5 (5=81-100%) | 1 (1=0-20%)
5 | FC(F)(F)c1cc(Cc2ncc(Cl)cn2)n(-c2ccc(Cl)cc2)n1 [Compound 1.008] | 5 (5=81-100%) | 5 (5=81-100%) | 5 (5=81-100%) | 5 (5=81-100%) | 3 (3=41-60%) | 5 (5=81-100%) | 5 (5=81-100%) | 5 (5=81-100%) | 5 (5=81-100%) | 4 (4=61-80%)
6 | FC(F)(F)c1ccc(-n2nc(C(F)(F)Cl)cc2Cc2ncc(Cl)cn2)cc1 [Compound 1.036] | 5 (5=81-100%) | 5 (5=81-100%) | 5 (5=81-100%) | – | 3 (3=41-60%) | 5 (5=81-100%) | 5 (5=81-100%) | 5 (5=81-100%) | 5 (5=81-100%) | 5 (5=81-100%)
7 | FC(F)(F)c1ccc(-n2nc(C(F)(F)F)cc2Cc2ncc(Br)cn2)cc1 [Compound 1.002, 5-bromo-2-[[5-(trifluoromethyl)-2-[4-(trifluoromethyl)phenyl]pyrazol-3-yl]methyl]pyrimidine] | 5 (5=81-100%) | 4 (4=61-80%) | 4 (4=61-80%) | 4 (4=61-80%) | 4 (4=61-80%) | 5 (5=81-100%) | 5 (5=81-100%) | 4 (4=61-80%) | 5 (5=81-100%) | 5 (5=81-100%)
8 | FC(F)(F)c1ccc(-n2nc(C(F)(F)F)cc2Cc2ncc(Cl)cn2)cc1 [Compound 1.001, 5-chloro-2-[[5-(trifluoromethyl)-2-[4-(trifluoromethyl)phenyl]pyrazol-3-yl]methyl]pyrimidine] | 4 (4=61-80%) | 4 (4=61-80%) | 4 (4=61-80%) | 4 (4=61-80%) | 4 (4=61-80%) | 5 (5=81-100%) | 5 (5=81-100%) | 5 (5=81-100%) | 5 (5=81-100%) | 5 (5=81-100%)
9 | Fc1cc(-n2nc(C(F)(F)F)cc2Cc2ncc(Cl)cn2)cnc1Cl [Compound 1.026, 5-chloro-2-[[2-(6-chloro-5-fluoro-3-pyridyl)-5-(trifluoromethyl)pyrazol-3-yl]methyl]pyrimidine] | 5 (5=81-100%) | 5 (5=81-100%) | 5 (5=81-100%) | – | 2 (2=21-40%) | 5 (5=81-100%) | 5 (5=81-100%) | – | 5 (5=81-100%) | 5 (5=81-100%)
10 | N#Cc1cc(Cc2ncc(Cl)cn2)n(-c2ccc(F)c(F)c2)n1 [Compound 1.025, 5-[(5-chloropyrimidin-2-yl)methyl]-1-(3,4-difluorophenyl)pyrazole-3-carbonitrile] | 5 (5=81-100%) | 5 (5=81-100%) | 5 (5=81-100%) | – | 4 (4=61-80%) | 5 (5=81-100%) | 5 (5=81-100%) | – | 5 (5=81-100%) | 5 (5=81-100%)
11 | Fc1ccc(-n2nc(C(F)F)cc2Cc2ncc(Cl)cn2)cc1 [Compound 1.033] | 4 (4=61-80%) | 5 (5=81-100%) | – | 5 (5=81-100%) | 4 (4=61-80%) | 5 (5=81-100%) | 5 (5=81-100%) | – | 5 (5=81-100%) | 5 (5=81-100%)
12 | N#Cc1ccc(-n2nc(C#N)cc2Cc2ncc(Cl)cn2)cn1 [Compound 1.019] | 4 (4=61-80%) | 5 (5=81-100%) | – | 5 (5=81-100%) | 3 (3=41-60%) | 4 (4=61-80%) | 5 (5=81-100%) | – | 5 (5=81-100%) | 5 (5=81-100%)
13 | FC(F)c1cc(Cc2ncc(Cl)cn2)n(-c2cnc(Cl)c(Cl)c2)n1 [Compound 1.030] | 4 (4=61-80%) | 5 (5=81-100%) | – | 5 (5=81-100%) | 4 (4=61-80%) | 5 (5=81-100%) | 5 (5=81-100%) | – | 5 (5=81-100%) | 4 (4=61-80%)
